From the Deep4Chem optical property database come the findings set out here.

SMILES strings stand for the structures. Values joined by “and” are separate entries in the source; they are usually repeats but may differ in a detail not shown here. Identical values can stand only once.

A short description of the series: photoluminescence quantum yield (fraction); solvent given as SMILES.

`CCOC(=O)COc1ccc(/C=C/C2=C3c4ccccc4C(c4[nH]c(C)cc4C)=[N+]3[B-](F)(F)n3c(/C=C/c4ccc(OCC(=O)OCC)cc4)cc(C)c32)cc1` yielded a photoluminescence quantum yield (in C1CCOC1) of 0.05; a photoluminescence quantum yield (in CC#N) of 0.009; a photoluminescence quantum yield (in CCCCCC) of 0.04; a photoluminescence quantum yield (in CO) of 0.002; a photoluminescence quantum yield (in Cc1ccccc1) of 0.009; a photoluminescence quantum yield (in ClCCl) of 0.012.

For `COc1ccc(/C=C/c2ccccc2)cc1`, the photoluminescence quantum yield came out at 0.022 (in C1CCCCC1); 0.007 (in CC#N); 0.011 (in CC(C)O); 0.02 (in CCCCOCCCC); 0.016 (in CCOC(C)=O); 0.015 (in CCOCC).

On to `CCC1(CC)c2ccccc2-c2ccc(C#Cc3ccc4ccc5cccc6ccc3c4c56)cc21`, for which the photoluminescence quantum yield (in Cc1ccccc1) came out at 0.99.

In turn, `CN(C)c1ccc(-c2cc[n+](C)cc2)s1` returned a photoluminescence quantum yield (in CCO) of 0.003.

With `CC1(C)c2ccccc2N(c2ccc(-c3nc4c(C#N)ccc(C#N)c4nc3-c3ccc(N4c5ccccc5C(C)(C)c5ccccc54)cc3)cc2)c2ccccc21`, the photoluminescence quantum yield (in Cc1ccccc1) turned out to be 0.72.

Under “in CO”, `COc1ccc(-c2nc(-c3ccccc3OC)[nH]c2-c2ccc(OC)cc2)cc1` had a photoluminescence quantum yield of 0.27.

In turn, `N#Cc1ccc(-n2c(-c3ccc(-c4ccc(-c5nc6c7ccccc7c7ccccc7c6n5-c5ccc(C#N)c6ccccc56)cc4)cc3)nc3c4ccccc4c4ccccc4c32)c2ccccc12` yielded a photoluminescence quantum yield (in ClCCl) of 0.85.

As to `C(=C\N1CCCC1)/c1nc2ccccc2nc1-c1ccccc1`, the photoluminescence quantum yield (in C1CCCCC1) amounted to 0.186; the photoluminescence quantum yield (in C1CCOC1) turned out to be 0.445; the photoluminescence quantum yield (in CC#N) was determined as 0.199; the photoluminescence quantum yield (in CC(C)=O) was found to be 0.284; the photoluminescence quantum yield (in CCO) is 0.023; the photoluminescence quantum yield (in CO) is 0.006. The photoluminescence quantum yield (in CS(C)=O) is 0.112, the photoluminescence quantum yield (in Cc1ccccc1) was 0.49 and the photoluminescence quantum yield (in ClCCl) stood at 0.598.

For `CCOC(=O)C1=C(C(=O)OCC)C2(c3ccccc3-c3ccccc32)[C@@H](c2ccc(Cl)cc2)C=C2c3cc(OC)c(OC)cc3CCN21`, the photoluminescence quantum yield (in ClCCl) was 0.00114.

The compound `CCN(CC)c1ccc2cc(/C=C/C3=CC(/C=C/c4cc5ccc(N(CC)CC)cc5oc4=O)=[O+][B-](F)(F)O3)c(=O)oc2c1` displayed a photoluminescence quantum yield (in CC#N) of 0.012; a photoluminescence quantum yield (in CC(C)=O) of 0.032; a photoluminescence quantum yield (in CCOC(C)=O) of 0.418; a photoluminescence quantum yield (in CN(C)C=O) of 0.096; a photoluminescence quantum yield (in CS(C)=O) of 0.008; a photoluminescence quantum yield (in Cc1ccccc1) of 0.849. In addition, the photoluminescence quantum yield (in ClC(Cl)Cl) was 0.504 and the photoluminescence quantum yield (in ClCCl) was 0.271.

Turning to `CC[N+](CC)=c1ccc2c(-c3ccccc3C(=O)O)c3oc4cc(N)ccc4c3oc-2c1`, the photoluminescence quantum yield reads like this: (in CCO) 0.778; (in ClCCl) 0.726; (in O) 0.126.

Compound `F[B-]1(F)n2c(cc(Br)c2Br)C(c2ccccc2)=C2C=C(Br)C(c3ccc[nH]3)=[N+]21` returned a photoluminescence quantum yield (in ClC(Cl)Cl) of 0.47.

With `F[B-]1(F)OC(c2ccc3ccccc3c2)=CC(c2ccc3ccccc3c2)=[O+]1`, the photoluminescence quantum yield came out at 0.7 (in CC#N) and 0.9 (in ClC(Cl)(Cl)Cl).

Take `CC[N+]1(CC)CN2C(=N1)C(C(=O)O)=Cc1cc(Oc3ccccc3)ccc12`: the photoluminescence quantum yield (in O) is 0.592.

On to `N#Cc1c(-n2c3ccccc3c3ccccc32)c(C#N)c(-n2c3ccccc3c3ccccc32)c(-n2c3ccccc3c3ccccc32)c1-n1c2ccccc2c2ccccc21`, for which the photoluminescence quantum yield is, setting by setting: (in Cc1ccccc1) 0.938 and 0.88; (in c1ccc2c(c1)c1ccccc1n2-c1ccc(-c2ccc(-n3c4ccccc4c4ccccc43)cc2)cc1) 0.83.

In the case of `COc1ccc(/C=C/C2=[O+][B-](F)(F)OC(/C=C/c3ccc(OC)cc3)=C2c2ccc(OC)cc2)cc1`, the photoluminescence quantum yield (in ClCCl) came out at 0.39.

Compound `Nc1cc2oc3cc(O)c(F)cc3c(=O)c2cc1F` came in with a photoluminescence quantum yield (in CCO) of 0.44.
